How the values were obtained:
[1] = target: A1R in A1R-A2AR heteromers (Homo sapiens, UniProt P30542); conditions: A2AR-A1R cells, [^3H]DPCPX 2 nM
rats [2] = assay: Locomotor activity in habituated rats; assay type: in vivo, rat; conditions: for Locomotor activation: 1 mg/kg i.p.; for Dose producing significant locomotor activation: i.p., 90 min after administration, habituated rats
Method: (§1) Male Sprague-Dawley rats (Charles River Laboratories, Wilmington, MA) weighting between 300–350 g were used in these experiments. Rats were housed 2 per cage and they maintained at a temperature of 22±2°C on a regular 12-h light–dark cycle. Food and water were available ad libitum.
(§2) All drugs but MSX-3 (Sigma-Aldrich, St. Louis, MI) were provided by CHDI Foundation Inc. (Los Angeles, CA, US). SCH-420814 was administered subcutaneously (s.c.) at 1 ml/kg and the other drugs were administered via intraperitonal (i.p.) injection at volume of 2 ml/kg.
Locomotor activity was measured by placing the animals individually in motility soundproof chambers (50×50 centimeters; Med Associates Inc., VT). Locomotion was measured by counting the number of breaks in the infrared beams of the chambers. The animals were placed in individual acrylic chambers at noon on the day of testing. A lamp inside each chamber remained lit during this period. Following 90 min of habituation, the rats were injected i.p. with different doses of each compound or vehicle and locomotor activity was recorded for 90 min after the drug or vehicle administration. All the animals were tested only once. The effect of different doses of the A2AR antagonists on locomotor activity were analyzed using a one-way analysis of variance (ANOVA), followed by Newman-Keuls' post-hoc test.

[3] = tested on: striatal glutamate release induced by cortical electrical stimulation; assay: In vivo microdialysis with cortical electrical stimulation; set-up: species or system rat; conditions: 1 mg/kg i.p.
Method: as §1
Rats were anesthetized with 3 ml/kg of Equithesin (4.44 g of chloral hydrate, 0.972 g of Na pentobarbital, 2.124 g of MgSO4, 44.4 ml of propylene glycol, 12 ml of ethanol and distilled H2O up to 100 ml of final solution; NIDA Pharmacy, Baltimore, MD) and implanted unilaterally with bipolar stainless steel electrodes, 0.15 mm in diameter (Plastics One, Roanoke, VA), into the orofacial area of the lateral agranular motor cortex (3 mm anterior, 3 and 4 mm lateral, and 4.2 mm below bregma). The electrodes and a head holder (connected to a swivel during stimulation) were fixed on the skull with stainless steel screws and dental acrylic resin. […]
The experiments were performed on freely moving rats 24 h after probe implantation. […] Glutamate content was measured by reverse-phase HPLC coupled to a flourimetric detector (Shimadzu Inc., Tokio, Japan). Glutamate values were transformed as percentage of the mean of the three values before the drug or vehicle injection and transformed values were statistically analyzed.

rats [4] = assay: Motor output induced by cortical electrical stimulation (EMG recording, power correlation coefficient PCC); assay type: in vivo, rat; conditions: for Dose significantly reducing PCC: i.p., PCC 40 min after administration
Method: as §1, §2
Rats were anesthetized with 3 ml/kg of Equithesin (4.44 g of chloral hydrate, 0.972 g of Na pentobarbital, 2.124 g of MgSO4, 44.4 ml of propylene glycol, 12 ml of ethanol and distilled H2O up to 100 ml of final solution; NIDA Pharmacy, Baltimore, MD) and implanted unilaterally with bipolar stainless steel electrodes, 0.15 mm in diameter (Plastics One, Roanoke, VA), into the orofacial area of the lateral agranular motor cortex (3 mm anterior, 3 and 4 mm lateral, and 4.2 mm below bregma). The electrodes and a head holder (connected to a swivel during stimulation) were fixed on the skull with stainless steel screws and dental acrylic resin. For the experiments with electromyographic (EMG) recording, electrodes were also implanted in mastication muscles (during the same surgical procedure). Two 5 mm-long incisions were made in the skin on the upper and lower jaw areas to expose the masseter and the lateral pterygoid muscles. […] The bare tips of the electrodes were then held in contact with the masseter and the lateral pterygoid muscles and the skin was closed with surgical staples. The other end of the recording electrodes was encased in a molded plastic pedestal with a round threaded post which was attached to an electrical swivel and then to a differential amplifier (Grass LP511, Grass Instruments, Warwick, RI). The pedestal was secured to the skull with dental cement together with the stimulation electrodes. For the in vivo microdialysis experiments, concentric microdialysis probes with 2-mm long dialysis membranes (Eicom Corp., Tokio, Japan) were implanted respectively into the striatum ipsilateral to the stimulation electrodes (0.0 mm AP, 4.5 ML and 7.0 mm DV).
Rats were placed in individual bowl chambers. Both stimulation electrodes and recording electrodes were attached using flexible shielded cabling to a four channel electrical swivel. Stimulation electrodes were connected to two-coupled constant current isolation units (PSIU6X, Grass Instruments West Warwick, RI) driven by an electrical stimulator (Grass S88X; Grass Instruments). The recording electrodes were connected to a differential amplifier (Grass LP511, West Warwick, RI). This configuration allows the rat to move freely while the stimulation and EMG recordings are taking place. After 60 min of habituation, biphasic current pulse trains (pulse of 0.1 ms at 120–200 µA; 100 Hz, 160 ms trains repeating once per 2 seconds) were delivered. The current intensity was adjusted to the threshold level, defined as the minimal level of current intensity allowing at least 95% of the stimulation pulses to elicit a positive EMG response. Positive EMG response was defined as at least 100% increase of the peak to peak amplitude respect to the background tonic EMG activity lasting more than 100 ms or at least 70% increase in the power of the EMG signal respect to the baseline. Positive EMG responses always matched observable small jaw movements. […]

[5] = target: T1, A2AR in A1R-A2AR heteromers (Homo sapiens, UniProt P29274); assay: biochemical
[6] = target: T1, A2AR in A1R-A2AR heteromers; conditions: A2AR-A1R cells, [^3H]ZM-241385 2 nM
A2AR [7] = target: T2, A2AR (Homo sapiens, UniProt P29274); conditions: A2AR cells; [^3H]ZM-241385 2 nM
[8] = target: T3, A2AR in A2AR-D2R heteromers (Homo sapiens, UniProt P29274); assay: biochemical
A2AR [9] = target: T2, A2AR; assay: biochemical
[10] = target: T3, A2AR in A2AR-D2R heteromers; conditions: for Reduction of the affinity of A2AR by co-transfection with D2R: A2AR-D2R cells versus A2AR cells; for DCB (dimer cooperativity index): A2AR-D2R cells, A2AR, [^3H]ZM-241385 2 nM
[11] = tested on: striatal glutamate release induced by cortical electrical stimulation; set-up: method as in PMID 19936569; conditions: intrastriatal perfusion; previous study; ref [5]; cited from earlier work

T2 sequence (P29274 whole entry): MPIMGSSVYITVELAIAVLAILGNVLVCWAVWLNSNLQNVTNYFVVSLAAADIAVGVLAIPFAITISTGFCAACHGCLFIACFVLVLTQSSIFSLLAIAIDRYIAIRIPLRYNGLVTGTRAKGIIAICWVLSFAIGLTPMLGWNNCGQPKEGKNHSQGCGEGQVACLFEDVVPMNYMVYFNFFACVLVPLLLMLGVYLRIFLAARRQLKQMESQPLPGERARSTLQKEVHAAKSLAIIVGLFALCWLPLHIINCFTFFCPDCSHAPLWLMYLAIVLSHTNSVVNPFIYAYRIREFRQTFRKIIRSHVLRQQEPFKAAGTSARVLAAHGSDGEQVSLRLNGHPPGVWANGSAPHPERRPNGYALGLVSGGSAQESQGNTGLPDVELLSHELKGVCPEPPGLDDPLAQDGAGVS
T1 sequence (P29274 whole entry): as above
T1 sequence (P30542 whole entry partner): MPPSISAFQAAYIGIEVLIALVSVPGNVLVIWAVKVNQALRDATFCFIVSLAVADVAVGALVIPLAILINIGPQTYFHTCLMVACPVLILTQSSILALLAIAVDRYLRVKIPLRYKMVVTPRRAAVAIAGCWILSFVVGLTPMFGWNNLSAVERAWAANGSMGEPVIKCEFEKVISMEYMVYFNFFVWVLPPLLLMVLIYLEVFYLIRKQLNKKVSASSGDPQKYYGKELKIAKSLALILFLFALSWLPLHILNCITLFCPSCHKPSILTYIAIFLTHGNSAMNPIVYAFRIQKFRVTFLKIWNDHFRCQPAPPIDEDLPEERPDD
T3 sequence (P29274 whole entry): as the sequence (P29274 whole entry) above
T3 sequence (P14416 whole entry partner): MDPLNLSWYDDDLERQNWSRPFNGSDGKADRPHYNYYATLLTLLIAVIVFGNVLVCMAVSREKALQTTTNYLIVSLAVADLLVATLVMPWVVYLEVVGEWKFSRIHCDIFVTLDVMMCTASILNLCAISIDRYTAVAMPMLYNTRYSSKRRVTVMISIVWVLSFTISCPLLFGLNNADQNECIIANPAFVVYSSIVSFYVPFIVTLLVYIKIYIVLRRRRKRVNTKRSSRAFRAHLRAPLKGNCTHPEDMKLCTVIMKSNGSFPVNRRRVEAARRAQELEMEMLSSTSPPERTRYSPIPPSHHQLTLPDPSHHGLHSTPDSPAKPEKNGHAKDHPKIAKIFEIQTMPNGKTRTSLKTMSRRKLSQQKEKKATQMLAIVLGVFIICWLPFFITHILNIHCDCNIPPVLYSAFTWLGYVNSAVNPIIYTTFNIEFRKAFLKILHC
Sequence of A1R in A1R-A2AR heteromers (P29274 whole entry): as the sequence (P29274 whole entry) above
Sequence of A1R in A1R-A2AR heteromers (P30542 whole entry): as the sequence (P30542 whole entry partner) above

| Kd [5] [nM] | DCB (dimer cooperativity index) [6] | DCB (dimer cooperativity index) (A2AR [7]) | Kd [8] [nM] | Kd (A2AR [9]) [nM] | Reduction of the affinity of A2AR by co-transfection with D2R [10] | DCB (dimer cooperativity index) [10] | SMILES | Locomotor activation (rats [2]) | Dose producing significant locomotor activation (rats [2]) | Effect on striatal glutamate release induced by cortical stimulation [3] | Reduction of PCC (rats [4]; 1 mg/kg i.p.) | Dose significantly reducing PCC (rats [4]) [mg/kg] | also measured |
| --- | --- | --- | --- | --- | --- | --- | --- | --- | --- | --- | --- | --- | --- |
|  |  |  |  |  |  |  | C[C@H](Cc1ccccc1)Nc1ncnc2c1ncn2[C@@H]1O[C@H](CO)[C@@H](O)[C@H]1O [R-PIA] |  |  |  |  |  | B50 (concentration providing half saturation) [1]: 30 ± 10 nM |
|  |  |  |  |  |  |  | CCn1c(=O)c2c(nc(/C=C/c3ccc(OC)c(OC)c3)n2C)n(CC)c1=O [KW-6002, (E)-1,3-diethyl-8-(3,4-dimethoxystyryl)-7-methyl-3,7-dihydro-1H-purine-2,6-dione] | pronounced locomotor activation | 0.3 mg/kg | did not modify | did not reduce PCC | > 10 |  |
|  |  |  |  |  |  |  | COc1ccc(CCCn2ncc3c2nc(N)n2nc(-c4ccco4)nc32)cc1 [SCH-442416, 2-(2-Furanyl)-7-[3-(4-methoxyphenyl)propyl]-7H-pyrazolo[4,3-e][1], [2], [4]triazolo[1,5-c]pyrimidin-5-amine] | did not induce locomotor activation | higher than 3 mg/kg | significantly counteracted | strongly reduced PCC | 0.1 |  |
| 4.2 ± 0.3 | 0 | 0 | 7 ± 2 | 3.2 ± 0.2 | two to about nine | 0 | C#CCn1c(=O)c2c(nc(/C=C/c3cccc(OC)c3)n2C)n(CCCO)c1=O [MSX-2, (E)-3-(3-hydroxypropyl)-8-[2-(3-methoxyphenyl)vinyl]-7-methyl-1-prop-2-ynyl-3,7-dihydropurine-2,6-dione] |  |  |  |  |  |  |
|  |  |  |  |  |  |  | C#CCn1c(=O)c2c(nc(/C=C/c3cccc(OC)c3)n2C)n(CCCOP(=O)(O)O)c1=O.[Na].[Na] [MSX-3, (E)-phosphoric acid mono-(3-{8-[2-(3-methoxyphenyl)vinyl]-7-methyl-2,6-dioxo-1-prop-2-ynyl-1,2,6,7-tetrahydropurin-3-yl}propyl) ester disodium salt] |  |  |  |  |  | Effect on striatal glutamate release induced by cortical electrical stimulation [11]: almost completely counteracted; Reduction of PCC (rats [4]; dose-response, Fig. 2): very effective reduction of PCC |
| 1.1 ± 0.1 | 0 | 0 | 2.7 ± 0.8 | 0.5 ± 0.1 | two to about nine | 0 | COCCOc1ccc(N2CCN(CCn3ncc4c3nc(N)n3nc(-c5ccco5)nc43)CC2)cc1 [SCH-420814, 2-(2-furanyl)-7-[2-[4-[4-(2-methoxyethoxy)phenyl]-1-piperazinyl]ethyl]-7H-pyrazolo[4,3-e][1], [2], [4]-triazolo[1,5-c]pyrimidin-5-amine] |  |  |  |  |  |  |

From publication PMC3019225, “Striatal Pre- and Postsynaptic Profile of Adenosine A2A Receptor Antagonists” (PLoS ONE, 2011)
